Structures can show the parent of a compound that is named as a salt.
Assays:
[1] = Solubility curve in 5% aqueous solution of ammonium hydroxide (FIG. 4); format: physicochemical; conditions: as a function of temperature (FIG. 4)
Excerpt: FIG. 4. Solubility curve of 11-aminoundecanoic acid and dodecanedioic acid in 5% aqueous solution of ammonium hydroxide.
In one embodiment of the present invention, schematically illustrated in FIG. 1, the solution or suspension is further cooled to crystallize the long chain amino acid, which can be recovered by means of solid-liquid separation to provide a mother liquor containing the ammonium or alkylamine salts of long chain dibasic acid and alkanoic acid. […] The three components in the mother liquor, i.e., alkylamine, dodecanedioic acid, and alkanoic acid, can be separated according to one of the following three methods.

[2] = Solubility / phase separation observation in water and aqueous salt solutions; format: physicochemical
Protocol: If there are long chain fatty acids present in the starting material, these fatty acids are precipitated as the ammonium salt, along with the long chain amino acid. In the production of 11-aminoundecanoic acid and dodecanedioic acid from the starting material of castor oil, significant amount of stearic acid is present in the mixed amide derivatives. […] If ammonia or ammonium hydroxide is used as the basic agent to neutralize sulfuric acid, and after more basic agent is added to the mother liquor to a basic pH, alkylamine can only be recovered by extraction. Distillation of the basic solution will remove ammonia instead of alkylamine. […] No phase separation is observed between hexylamine and a solution of ammonium sulfate.

SMILES	Solubility [1]	Solubility ([2]; in a solution of alkali salt)	Solubility ([2]; in a solution of ammonium salt, i.e., ammonium sulfate)	Solubility ([2]; in water)
NCCCCCCCCCCC(=O)O [11-aminoundecanoic acid]	nearly insoluble			
CCCCCCN [hexylamine]		insoluble	freely soluble	insoluble
O=C(O)CCCCCCCCCCC(=O)O [ammonium salt of dodecanedioic acid, dodecanedioic acid]	soluble and becomes more soluble as temperature increases			

From patent US10053416B1, “Process for producing long chain amino acids and dibasic acids” (VITAWORKS IP, LLC, priority 2017, dated 2018)
